The text below walks through data of patent US20250129146A1, “COMBINED CANCER THERAPY WITH AN EPITHELIAL CELL ADHESION MOLECULE (EPCAM) INHIBITOR AND A WNT INHIBITOR” (ACADEMIA SINICA, priority 2021, published 2025).

Entries after “also recorded” stand apart in the source; their conditions may differ.

One data set deals with HT29 and SW620 cells. The data set is described as follows: Colony formation assay. The format is cell-based, human. As to the method:
Cells were seeded in 12-well plate (5×10^3 cells per well) and treated with 20 µg/mL mEpAb2-6, hEpAb2-6 or MT201 (Produced in house) or 400 ng/mL LGK974 (MedChemExpress) or combination as indicated in which case the elements were directly added to the culture medium. The medium along with the treatment component were changed in every alternating day and the cells were allowed to grow for 10 days. On the tenth day, cells were washed and fixed with 4% paraformaldehyde and further stained with 1% crystal violet for 30 min. Colonies were washed 3 times with PBS, and images were taken. Furthermore, to measure colony density, the wells were incubated with 0.5% SDS shaking for 2 h at RT. The supernatants were collected, and the absorbance of the solution was taken at 570 nm using a microplate reader.

The test system of data set [1] is HCT116 cells. The data set is described as follows: Orthotopic animal model of human CRC (HCT116 cells with luciferase in cecum wall). The format is in vivo, NOD/SCID mice. As to the method: (§1) All animal experiments were approved and performed according to the regulations from the IACUC at Academia Sinica. HCT116 cells (1×10^6) were injected via tail vein for the metastatic model. Otherwise, 2×10^5 HCT116 cells with luciferase were surgically transplanted into the cecum wall for the orthotopic model. Male NOD/SCID mice, approximately 6 to 8 weeks old, were used for animal experiments (n=5 and n=6 for each treatment group in metastatic and orthotopic models respectively). At 72-h post-injection/transplantation, mice were randomly distributed into four different treatment groups. For the treatments, animals were injected with 20 mg/kg IgG or EpAb2-6 via tail vein twice a week for four weeks, or fed by oral gavage with either vehicle [0.5% methylcellulose (Sigma-Aldrich) and 0.5% Tween80 (Sigma-Aldrich)] or 5 mg/kg LGK974 (MedChemExpress) formulated with the vehicle on alternating days for four weeks, or animals were treated with the combination of both inhibitor and antibody. For the metastatic model, survival was the main endpoint. For the orthotopic model, tumor progression was monitor using bioluminescence imaging. To image the tumors, intraperitoneal injection of D-Luciferin (GOLD BIO) was performed, and images were taken 10 min post-injection.

The next data set concerns active β-Catenin. The data set is described as follows: Nuclear translocation of β-Catenin (immunofluorescence staining; cell fractionation with western blot). In kind it is cell-based, human. Particulars: wild-type HCT116 cells; 20 μg/mL EpAb2-6 for 6 h, 400 ng/mL LGK974 for 9 h or combination. How it is done: Cells (1×10^6) were seeded overnight and further allowed to grow in serum free conditions. Then cells were further treated with 20 μg/mL mEpAb2-6 or hEpAb2-6 or MT201 for 6 h or with 400 ng/mL LGK974 (MedChemExpress) for 9 h or combination as indicated. Samples were fractioned into cytosol and nuclear extracts using nuclear/cytosol fractionation kit (Biovision) according to the manufacturer's protocol. The fractions were then subjected to western blot analysis.
(§2) For western blotting, cells were extracted using radioimmunoprecipitation assay (RIPA) buffer [(0.01 M sodium phosphate, pH 7.2), 150 mM NaCl, 2 mM EDTA, 50 mM NaF, 1% Nonidet P-40, 1% sodium deoxycholate, and 0.1% SDS)] containing phosphatase inhibitor (Roche) and protease inhibitor (Roche) cocktail. Equal amounts of protein were separated by SDS-PAGE and then transferred to PVDF membranes. The membranes were blocked with 3% BSA in TBST (Blocking solution) and incubated with necessary primary antibodies in the blocking solution overnight at 4° C. Membranes were then incubated with HRP-conjugated secondary antibodies in the blocking solution for 1 h at room temperature, and protein expression were detected. Antibodies used: anti-α-tubulin (Sigma), anti-EpCAM (abeam), anti-Active β-Catenin (Millipore), anti-total β-Catenin (abeam), anti-Frizzled 6 (CST), anti-Frizzled 7 (Santa Cruz Biotech), anti-LRP5 (abcam), anti-Phospho-LRP5 (abcam), anti-Phospho-LRP6 (CST), anti-LRP6 (CST) and anti-EpEX antibody EpAb3-5 (Produced in house), anti-ADAM17 (abcam), anti-phopho-ADAM17 (abcam), anti-Presenilin2 (abcam), anti-phospho-Presenilin2 (S327) (abcam), anti-phospho-Presenilin2 (S330) (abcam) and anti-Axin2 (CST).
Glass slides were used in 24-well plates and coated with 0.1% gelatin. Further, 3×10^4 cells were seeded in serum free medium overnight. Cells were treated with 20 μg/mL EpAb2-6 for 6 h, or 400 ng/mL LGK974 (MedChemExpress) for 9 h or the combination. Cells were washed using ice-cold PBS and fixed with 4% paraformaldehyde for 15 min at RT and washed with ice-cold PBS. Further, cells were permeabilized using 0.1% triton-X in PBS for 20 min and subsequently washed with PBS. Cells were blocked with 3% BSA in PBS for 1 h at RT. Next, cells were treated with primary antibody anti-Active β-Catenin (Millipore) overnight. Then, cells were washed and treated with secondary antibody in 3% BSA containing PBS along with DAPI for 1 h at RT. Samples were then washed in PBS five times and mounted for microscopy. Nuclear β-Catenin intensities were calculated using IMARIS (Oxford Instruments) software.
On the technique in general: Immunoblotting shows a protein as a band on a membrane.

For data set [2] the following is noted: dose of 5 mg/kg body weight; cited from earlier work.
For a further data set, the system named is LRP5/6. The data set is described as follows: Phosphorylation of LRP5/6 (western blot). In kind it is cell-based, human. Particulars: SW620 cells; LGK974, EpAb2-6 or combined treatment. How it is done:
as §2

The test system of another data set is Oct4, Sox2 and c-Myc. The data set is described as follows: Stemness (pluripotency) factor expression (western blot, qPCR). In kind it is cell-based, human. Particulars: HT29 cells; LGK974, EpAb2-6 or combined treatment. As to the method:
as §2
(§3) Total RNA was extracted using TRI reagent and 5 μg of the total RNA was further reverse-transcribed using oligo (dT) primer with reverse transcriptase. Quantitative real time RT-PCR (qPCR) was performed on cDNA using the Light Cycler 480 SYBR Green-I Master kit and the LightCycler480 System. The gene expression levels of each sample were normalized to the expression levels of glyceraldehyde 3-phosphate dehydrogenase (GAPDH) or β-actin.

For data set [3], the system named is HCT116 cells. The data set is described as follows: Metastatic animal model of human CRC (HCT116 cells via tail vein). In kind it is in vivo, NOD/SCID mice. As to the method: as §1
In data set [4] the test system is colon cancer cells (SW620, HCT116). The data set is described as follows: Annexin-V/PI apoptosis assay. In kind it is cell-based, human. Particulars: SW620 and HCT116 cells; 20 μg/mL EpAb2-6, LGK974 or the combination for 24 hrs. How it is done:
Cells were seeded in 24-well plate ([…] cells per well) overnight and then treated with 20 μg/mL mEpAb2-6, hEpAb2-6 or MT201, or […] LGK974 (MedChemExpress) or the combination for 24 hrs. Cell pellets were collected, and an apoptosis assay was performed using an Annexin-V/PI apoptosis kit (BD Biosciences). Results were read by flow cytometry analysis percentage apoptotic cells was calculated.

In data set [5] the test system is HCT116, HT29 and SW620 cells. The data set is described as follows: Tumorsphere assay. In kind it is cell-based, human. As to the method: Cells were seeded in ultra-low adherent 6-well plates (5×10^4 cells per well) or 24-well plates (1×10^3 cells per well) and maintained in DMEM/F-12 supplemented with B27. Further, cells were treated with 20 μg/mL mEpAb2-6, hEpAb2-6 or MT201 (Produced in house), or 400 ng/mL LGK974 (MedChemExpress) or the combination, by direct addition to the culture medium. The entire culture medium, including the treatment component, was changed in every other day. Cells were cultured for 10 days, and on 10th day, spheres were counted and photographed under the microscope.

Data set [6] concerns Wnt receptors (FZD6/7, LRP5/6). The data set is described as follows: Wnt receptor protein and mRNA expression (western blot, qPCR). In kind it is cell-based, human. Particulars: HCT116 cells; EpAb2-6, LGK974 or combination. As to the method: as §2, §3
The mark [7] stands for this setting: EpCAM-knockout cells, exogenous EpEX, LGK974 or both.

Take `Cc1cc(-c2ncc(CC(=O)Nc3ccc(-c4cnccn4)cn3)cc2C)ccn1` [LGK974, 2-(2′,3-dimethyl-[2,4′-bipyridin]-5-yl)-N-(5-(pyrazin-2-yl)pyridin-2-yl)acetamide, reference compound]: the colony formation result is “complete loss of ability to form spheres or colonies” in the data set with HT29 and SW620 cells (setting [7]); “decreased” in the data set on HT29 and SW620 cells (HT29 cells, 20 µg/mL EpAb2-6, 400 ng/mL LGK974 or combination, 10 days). In addition, the “body weight after cessation of treatment” value with HCT116 cells [1] (orthotopic model) was “continued to lose body weight”. Further, the “median / overall survival” value with HCT116 cells [1] (orthotopic model) was “low median survival”. Further, the “body weight during the treatment period” value in the data set with HCT116 cells [1] (orthotopic model, 5 mg/kg LGK974) is on record as “decreased during the treatment period”. Also, the “tumor progression (bioluminescence)” value in the data set with HCT116 cells [1] (orthotopic model, 20 mg/kg EpAb2-6 via tail vein twice a week, 5 mg/kg LGK974 oral gavage on alternating days, four weeks) was “developed significant tumors”. For the same compound, the “tumor (cancer) progression in animal models” value with HCT116 cells [1] (summary statement, metastatic and orthotopic animal models of human CRC) is on record as “did not observe significant effects”. In addition, in the data set with active β-Catenin, the “nuclear β-Catenin” value was “decreased nuclear D3-Catenin but did not completely clear the protein from the nucleus”. Further, in data set [2], the toxicity entry is listed as “non-toxic”. Besides, the LRP5/6 phosphorylation entry in the data set on LRP5/6 is “could decrease LRP5/6 phosphorylation”. Also, the “expression of pluripotency factors” value in the data set with Oct4, Sox2 and c-Myc is listed as “decreased pluripotency factor expressions”. Moreover, in the data set with HCT116 cells [3] (20 mg/kg EpAb2-6 via tail vein twice a week, 5 mg/kg LGK974 oral gavage on alternating days, four weeks), the animal survival result was “decreased overall survival”. Further, the distant metastases result in the data set with HCT116 cells [3] (autopsies) is “distinct metastases; also recorded: found to have distant metastases”. In addition, the induction of apoptosis result in data set [4] is reported as “did not observe significant effects”. For the same compound, the tumorsphere formation result in data set [5] (setting [7]) was “complete loss of ability to form spheres or colonies”; in data set [5] (HCT116 and HT29 cells, 20 μg/mL EpAb2-6, 400 ng/mL LGK974 or combination, 10 days) it was “decreased”. The cancer stemness properties result in [5] (summary statement, CRC cells, tumorsphere and colony formation) is on record as “partially attenuate cancer sternness properties”. Besides, the “expression of Wnt receptors” value in [6] was “partially decrease”.
